The values below come from US8048825B2, “Haloalkylsulfonanilide derivatives or salt thereof, herbicide comprising the derivatives as active ingredient, and use of the herbicide” (Nihon Nohyaku Co., Ltd., priority 2006, dated 2011).

What all share (format): in vivo
Test [1] has as its system Lindernia procumbens. Description: Herbicidal efficacy on paddy field weeds of pre-emergence stage (Pre), Test Example 1. The settings on record: 1000 g/ha as active ingredient, examined after 21 days. The procedure: (§1) 75 cm^2 plastic pots were filled with the soil (clay loam). Seeds of Scirpus juncoides, a paddy weed, were planted, and they were covered with 75 cm^3 of soil mixed with seeds of Lindernia procumbens and then filled with water depth of 5 cm. Next day, predetermined effective dosage (1000 g/ha as an active ingredient) of formulations comprising a compound of the present invention as an active ingredient which were prepared following Formulation Examples 1 to 4 was diluted with water and applied dropwise to the surface of the water. Then, they were brought up in a greenhouse and the herbicidal effect was examined after 21 days from the treatment by comparing with the result of an untreated group according to the following criteria. In the table, “-” means that the test was not performed.
(§2) Criteria for herbicidal efficacy (growth inhibiting degree) and phytotoxicity. • 5 . . . 100% herbicidal effect, phytotoxicity. • 4 . . . 90%-99% herbicidal effect, phytotoxicity. • 3 . . . 70%-89% herbicidal effect, phytotoxicity. • 2 . . . 40%-69% herbicidal effect, phytotoxicity. • 1 . . . 1%-39% herbicidal effect, phytotoxicity. • 0 . . . 0% herbicidal effect, phytotoxicity.

The subject of test [2] is Scirpus juncoides. The description is as above. The settings on record: 1000 g/ha as active ingredient, examined after 21 days. As for the experimental part:
as §1, §2

For test [3], the system named is Lindernia procumbens. Description: Herbicidal effect on paddy field weeds of post-emergence stage (Post), Test Example 2. Conditions: one-leaf stage, 1000 g/ha as active ingredient, examined after 21 days.
From the text: as §2
(§3) 75 cm^2 plastic pots were filled with the soil (clay loam). Seeds of Scirpus juncoides and Echinochloa crus-galli, paddy weeds, were planted, and they were covered with 75 cm^3 of soil mixed with seeds of Lindernia procumbens and then filled with water depth of 5 cm and they were brought up in a greenhouse. When the test plants were at one-leaf stage, predetermined effective dosage (1000 g/ha as an active ingredient) of formulations comprising a compound of the present invention as an active ingredient was applied to the pot water. Then, they were brought up in a greenhouse and the herbicidal efficacy was examined after 21 days from the treatment by comparing with the result of an untreated group according to the criteria of Test Example 1. In the table, “-” means that the test was not performed.

For test [4], the system named is Scirpus juncoides. The description is as above. The settings on record: one-leaf stage, 1000 g/ha as active ingredient, examined after 21 days.
From the text: as §2, §3

For `CC1(c2ccccc2F)CCN(Cc2ccccc2NS(=O)(=O)C(F)(F)F)C(=O)O1` (racemic) [Compound 1-428], the “Lindernia procumbens pre (herbicidal effect)” value (“Lindernia procumbens pre” for short) in test [1] is recorded as 5 (100% herbicidal effect, phytotoxicity). The “Scirpus juncoides pre (herbicidal effect)” value (“Scirpus juncoides pre” for short) in test [2] is 5 (100% herbicidal effect, phytotoxicity). For the same compound, the “Lindernia procumbens post (herbicidal effect)” value (from here on “Lindernia procumbens post”) in test [3] is given as 5 (100% herbicidal effect, phytotoxicity). Besides, the “Scirpus juncoides post (herbicidal effect)” value (from here on “Scirpus juncoides post”) in test [4] is 4 (90%-99% herbicidal effect, phytotoxicity).

In the case of `CCC1(C(C)C)CCN(Cc2ccccc2N(C(=O)OCC(C)(C)C)S(=O)(=O)C(F)(F)F)C(=O)O1` (racemic) [Compound 1-456], the “Lindernia procumbens pre” value in test [1] is 5 (100% herbicidal effect, phytotoxicity). Further, the “Scirpus juncoides pre” value in test [2] is 5 (100% herbicidal effect, phytotoxicity). Moreover, the “Lindernia procumbens post” value in test [3] is 5 (100% herbicidal effect, phytotoxicity). Moreover, in test [4], the “Scirpus juncoides post” value was 4 (90%-99% herbicidal effect, phytotoxicity).

As to `CC1(Cc2ccccc2F)CCN(Cc2ccccc2NS(=O)(=O)C(F)(F)F)C(=O)O1` (racemic) [Compound 1-461], in test [1], the “Lindernia procumbens pre” value is reported as 5 (100% herbicidal effect, phytotoxicity). Besides, in test [2], the “Scirpus juncoides pre” value is 5 (100% herbicidal effect, phytotoxicity). Also, the “Lindernia procumbens post” value in test [3] is 5 (100% herbicidal effect, phytotoxicity). For the same compound, the “Scirpus juncoides post” value in test [4] was 4 (90%-99% herbicidal effect, phytotoxicity).

Take `O=C1OC(c2ccccc2F)CCN1Cc1ccccc1NS(=O)(=O)C(F)(F)F` (stereo not drawn) [Compound 1-250]: the “Lindernia procumbens pre” value in test [1] is listed as 5 (100% herbicidal effect, phytotoxicity). Also, the “Scirpus juncoides pre” value in test [2] was 5 (100% herbicidal effect, phytotoxicity). For the same compound, in test [3], the “Lindernia procumbens post” value is 5 (100% herbicidal effect, phytotoxicity). Also, the “Scirpus juncoides post” value in test [4] is 5 (100% herbicidal effect, phytotoxicity).

With `CCOC(=O)N(c1ccccc1CN1CCC(c2ccc(Cl)cc2)(C2CC2)OC1=O)S(=O)(=O)C(F)(F)F` (stereo not drawn) [Compound 1-197], in test [1], the “Lindernia procumbens pre” value is recorded as 4 (90%-99% herbicidal effect, phytotoxicity). Moreover, the “Scirpus juncoides pre” value in test [2] is recorded as 4 (90%-99% herbicidal effect, phytotoxicity). For the same compound, in test [3], the “Lindernia procumbens post” value was 4 (90%-99% herbicidal effect, phytotoxicity). In test [4], the “Scirpus juncoides post” value is 4 (90%-99% herbicidal effect, phytotoxicity).

For the compound `CC1(c2c(F)cccc2F)CCN(Cc2ccccc2NS(=O)(=O)C(F)(F)F)C(=O)O1` (racemic) [Compound 1-439], the “Lindernia procumbens pre” value in test [1] is on record as 5 (100% herbicidal effect, phytotoxicity). Further, the “Scirpus juncoides pre” value in test [2] was 5 (100% herbicidal effect, phytotoxicity). Further, in test [3], the “Lindernia procumbens post” value is on record as 5 (100% herbicidal effect, phytotoxicity). Moreover, in test [4], the “Scirpus juncoides post” value was 4 (90%-99% herbicidal effect, phytotoxicity).

Regarding `O=C1OC(c2ccccc2)(c2ccccc2)CCN1Cc1ccccc1NS(=O)(=O)C(F)(F)F` [Compound 1-217], in test [1], the “Lindernia procumbens pre” value is 4 (90%-99% herbicidal effect, phytotoxicity). Also, the “Scirpus juncoides pre” value in test [2] was 4 (90%-99% herbicidal effect, phytotoxicity). Also, the “Lindernia procumbens post” value in test [3] was 4 (90%-99% herbicidal effect, phytotoxicity). Further, in test [4], the “Scirpus juncoides post” value is 4 (90%-99% herbicidal effect, phytotoxicity).

Take `O=C1OC(c2ccccc2Cl)CCN1Cc1ccccc1NS(=O)(=O)C(F)(F)F` (stereo not drawn) [Compound 1-305]: the “Lindernia procumbens pre” value in test [1] is listed as 5 (100% herbicidal effect, phytotoxicity). The “Scirpus juncoides pre” value in test [2] is 4 (90%-99% herbicidal effect, phytotoxicity). In addition, the “Lindernia procumbens post” value in test [3] is 5 (100% herbicidal effect, phytotoxicity). For the same compound, in test [4], the “Scirpus juncoides post” value is reported as 4 (90%-99% herbicidal effect, phytotoxicity).

Take `CCOC(=O)N(c1ccccc1CN1CCC(c2ccccc2Cl)OC1=O)S(=O)(=O)C(F)(F)F` (stereo not drawn) [Compound 1-307]: the “Lindernia procumbens pre” value in test [1] is 5 (100% herbicidal effect, phytotoxicity). Further, in test [2], the “Scirpus juncoides pre” value is given as 4 (90%-99% herbicidal effect, phytotoxicity). Moreover, the “Lindernia procumbens post” value in test [3] is 5 (100% herbicidal effect, phytotoxicity). Also, the “Scirpus juncoides post” value in test [4] is listed as 4 (90%-99% herbicidal effect, phytotoxicity).

For `O=C1OC(C(F)(F)F)(C(F)(F)F)CCN1Cc1ccccc1NS(=O)(=O)C(F)(F)F` [Compound 1-338], the “Lindernia procumbens pre” value in test [1] is 4 (90%-99% herbicidal effect, phytotoxicity). Also, in test [2], the “Scirpus juncoides pre” value is 4 (90%-99% herbicidal effect, phytotoxicity). Moreover, the “Lindernia procumbens post” value in test [3] is recorded as 5 (100% herbicidal effect, phytotoxicity). Moreover, in test [4], the “Scirpus juncoides post” value was 4 (90%-99% herbicidal effect, phytotoxicity).

Turning to `CCC1(CC(C)C)CCN(Cc2ccccc2N(C(=O)OCC(C)(C)C)S(=O)(=O)C(F)(F)F)C(=O)O1` (racemic) [Compound 1-423], the “Lindernia procumbens pre” value in test [1] is 5 (100% herbicidal effect, phytotoxicity). Besides, the “Scirpus juncoides pre” value in test [2] is listed as 4 (90%-99% herbicidal effect, phytotoxicity). Besides, in test [3], the “Lindernia procumbens post” value is reported as 5 (100% herbicidal effect, phytotoxicity). Besides, the “Scirpus juncoides post” value in test [4] is recorded as 4 (90%-99% herbicidal effect, phytotoxicity).

As to `CC(C)COC(=O)N(c1ccccc1CN1CCC(C)(c2ccccc2Cl)OC1=O)S(=O)(=O)C(F)(F)F` (stereo not drawn) [Compound 1-177], the “Lindernia procumbens pre” value in test [1] is 4 (90%-99% herbicidal effect, phytotoxicity). Also, in test [2], the “Scirpus juncoides pre” value is recorded as 4 (90%-99% herbicidal effect, phytotoxicity). Moreover, in test [3], the “Lindernia procumbens post” value was 4 (90%-99% herbicidal effect, phytotoxicity). The “Scirpus juncoides post” value in test [4] is given as 4 (90%-99% herbicidal effect, phytotoxicity).

For `CC(C)(C)COC(=O)N(c1ccccc1CN1CCC(C2CC2)(C2CC2)OC1=O)S(=O)(=O)C(F)(F)F` [Compound 1-155], the “Lindernia procumbens pre” value in test [1] is reported as 4 (90%-99% herbicidal effect, phytotoxicity). Further, the “Scirpus juncoides pre” value in test [2] is listed as 4 (90%-99% herbicidal effect, phytotoxicity). Besides, the “Lindernia procumbens post” value in test [3] is given as 4 (90%-99% herbicidal effect, phytotoxicity). Besides, the “Scirpus juncoides post” value in test [4] is 4 (90%-99% herbicidal effect, phytotoxicity).

In the case of `CCC1(CC)CCN(Cc2ccccc2N(C(=O)OCC(C)C)S(=O)(=O)C(F)(F)F)C(=S)O1` [Compound 1-119], in test [1], the “Lindernia procumbens pre” value is reported as 4 (90%-99% herbicidal effect, phytotoxicity). Moreover, the “Scirpus juncoides pre” value in test [2] was 4 (90%-99% herbicidal effect, phytotoxicity). In test [3], the “Lindernia procumbens post” value is on record as 4 (90%-99% herbicidal effect, phytotoxicity). For the same compound, the “Scirpus juncoides post” value in test [4] is on record as 4 (90%-99% herbicidal effect, phytotoxicity).

As for `CC1(c2ccccc2)CCN(Cc2ccccc2NS(=O)(=O)C(F)(F)F)C(=O)O1` (stereo not drawn) [Compound 1-160], the “Lindernia procumbens pre” value in test [1] is on record as 4 (90%-99% herbicidal effect, phytotoxicity). The “Scirpus juncoides pre” value in test [2] was 4 (90%-99% herbicidal effect, phytotoxicity). Besides, the “Lindernia procumbens post” value in test [3] is recorded as 4 (90%-99% herbicidal effect, phytotoxicity). In test [4], the “Scirpus juncoides post” value is 4 (90%-99% herbicidal effect, phytotoxicity).
